Assay: Rat biodistribution of Tc-99m complexes

Blood (2 min p.i.) [% Injected dose/organ]	Heart (2 min p.i.) [% Injected dose/organ]	Heart/Blood Counts/Gram Ratio (2 min p.i.)	Heart/Liver Counts/Gram Ratio (2 min p.i.)	Liver (2 min p.i.) [% Injected dose/organ]	Blood (60 min p.i.) [% Injected dose/organ]	Heart (60 min p.i.) [% Injected dose/organ]	Heart/Blood Counts/Gram Ratio (60 min p.i.)	Heart/Liver Counts/Gram Ratio (60 min p.i.)	Liver (60 min p.i.) [% Injected dose/organ]	SMILES
19.85	0.66	0.44	1.57	5.90	0.54	0.17	5.4	1.17	2.37	COCCP(CCOC)CCP(CCOC)CCOC [Compound 2]
7.46	1.00	1.96	0.81	18.8	0.73	0.96	20.0	2.13	6.96	CCOCCCP(CCCOCC)CCP(CCCOCC)CCCOCC [Compound 4]
12.4	0.54	0.68	0.20	33.1	1.63	0.27	2.6	0.37	8.85	CCOCP(CCP(COCC)COCC)COCC [Compound 5]
11.0	0.54	0.72	0.41	19.0	1.69	0.42	4.0	0.46	12.0	CCOCCOCCP(CCOCCOCC)CCP(CCOCCOCC)CCOCCOCC [Compound 8]
40.5	0.43	0.17	0.16	35.2	7.59	0.14	0.3	0.04	48.8	FC(F)(F)COCCCP(CCCOCC(F)(F)F)CCP(CCCOCC(F)(F)F)CCCOCC(F)(F)F [Compound 10]
7.17	1.21	2.54	0.70	22.0	1.77	0.96	7.9	1.25	10.6	CCOC(C)CP(CCP(CC(C)OCC)CC(C)OCC)CC(C)OCC (centres unmarked) [Compound 13]
12.2	0.62	0.70	1.01	8.22	0.67	0.51	9.4	2.48	2.24	COC(C)CCP(CCC(C)OC)CCP(CCC(C)OC)CCC(C)OC (centres unmarked) [Compound 15]

Further lines, the compound ahead of its results:

SMILES	Blood (2 min p.i.) [% Injected dose/organ]	Heart (2 min p.i.) [% Injected dose/organ]	Heart/Blood Counts/Gram Ratio (2 min p.i.)	Heart/Liver Counts/Gram Ratio (2 min p.i.)	Liver (2 min p.i.) [% Injected dose/organ]	Blood (60 min p.i.) [% Injected dose/organ]	Heart (60 min p.i.) [% Injected dose/organ]	Heart/Blood Counts/Gram Ratio (60 min p.i.)	Heart/Liver Counts/Gram Ratio (60 min p.i.)	Liver (60 min p.i.) [% Injected dose/organ]
CCOCCP(CCOCC)CCP(CCOCC)CCOCC [Compound 1, (EtOC2 H4)2 P--C2 H4 --P(C2 H4 OEt)2]	2.25	1.66	10.5	1.52	14.1	0.28	1.68	86.4	14.4	1.62
CCOC=CP(C=COCC)CCP(C=COCC)C=COCC [Compound 6]	15.6	0.58	0.61	0.18	44.3	3.26	0.46	2.2	0.19	30.6
COC(C)CP(CCP(CC(C)OC)CC(C)OC)CC(C)OC (centres unmarked) [Compound 11]	9.45	0.31	1.27	0.57	20.3	1.93	0.62	5.70	0.75	12.0
CCC(CP(CCP(CC(CC)OC)CC(CC)OC)CC(CC)OC)OC (centres unmarked) [Compound 12]	11.7	0.70	1.04	0.39	25.2	1.63	0.48	4.7	0.63	9.72
COCC(C)CP(CCP(CC(C)COC)CC(C)COC)CC(C)COC (centres unmarked) [Compound 14]	15.4	0.41	0.41	0.98	5.80	1.02	0.05	0.7	0.39	1.54
COC(C)(C)CCP(CCP(CCC(C)(C)OC)CCC(C)(C)OC)CCC(C)(C)OC [Compound 16]	11.4	0.79	1.01	0.58	19.2	1.58	0.54	4.69	0.96	7.71
COCC(COC)CP(CCP(CC(COC)COC)CC(COC)COC)CC(COC)COC [Compound 17]	5.86	1.14	2.99	0.92	17.1	1.03	0.86	13.9	1.59	7.88

From patent publication US5045302A, “Ligands and cationic complexes thereof with technetium-99m” (priority 1988, dated 1991)
